Oligonucleotides are written 5' to 3', each unit as a sugar letter and its base; * is a phosphorothioate linkage, no mark a phosphodiester; rarer units and linkages stand in square brackets, end groups in braces. Plain capitals give the bases only. d = 2'-deoxy (DNA); r = 2'-OH (RNA)
biological target: DENND5A; test: reporter assay of Huesken 2005; conditions: siRNA
Note: test concentration or dose not given here.

Q: With “sense rCrCrArGrCrUrCrArCrUrCrArUrGrCrCrUrCrCdTdT / antisense rGrGrArGrGrCrArUrGrArGrUrGrArGrCrUrGrGdCdA” as the substance, how does the normalised inhibition (eCFP-eYFP dual reporter) read?
A: The normalised inhibition (eCFP-eYFP dual reporter) was 64.4%.

Q: For “sense rCrUrCrArArGrArUrUrCrCrUrGrGrArGrArCrCdTdT / antisense rGrGrUrCrUrCrCrArGrGrArArUrCrUrUrGrArGdAdG”, which normalised inhibition (eCFP-eYFP dual reporter) is on record?
A: Its normalised inhibition (eCFP-eYFP dual reporter) is 64.6%.

Q: Which normalised inhibition (eCFP-eYFP dual reporter) does the source give for “sense rArArCrUrGrGrGrGrUrGrArGrCrCrUrGrGrArAdTdT / antisense rUrUrCrCrArGrGrCrUrCrArCrCrCrCrArGrUrUdCdT” here?
A: Its normalised inhibition (eCFP-eYFP dual reporter) is 58.4%.

Q: Which normalised inhibition (eCFP-eYFP dual reporter) does the source give for “sense rGrCrCrCrGrGrArArCrUrUrCrUrGrCrCrGrArUdTdT / antisense rArUrCrGrGrCrArGrArArGrUrUrCrCrGrGrGrCdTdC” here?
A: Its normalised inhibition (eCFP-eYFP dual reporter) is 70.9%.

Q: With “sense rUrGrArUrCrUrCrCrUrGrGrArArArGrGrArUrCdTdT / antisense rGrArUrCrCrUrUrUrCrCrArGrGrArGrArUrCrAdCdA” as the substance, how does the normalised inhibition (eCFP-eYFP dual reporter) read?
A: Its normalised inhibition (eCFP-eYFP dual reporter) is 44.1%.

Q: With “sense rUrGrCrArArArArCrUrUrUrGrArUrArArArGrCdTdT / antisense rGrCrUrUrUrArUrCrArArArGrUrUrUrUrGrCrAdTdT” as the substance, how does the normalised inhibition (eCFP-eYFP dual reporter) read?
A: The normalised inhibition (eCFP-eYFP dual reporter) was 46%.

Q: With “sense rUrCrArCrUrGrCrCrArArCrCrCrArUrGrGrArUdTdT / antisense rArUrCrCrArUrGrGrGrUrUrGrGrCrArGrUrGrAdAdC” as the substance, how does the normalised inhibition (eCFP-eYFP dual reporter) read?
A: The normalised inhibition (eCFP-eYFP dual reporter) was 57.8%.

Q: “sense rGrCrArArUrArArGrGrArUrCrUrCrArArArGrUdTdT / antisense rArCrUrUrUrGrArGrArUrCrCrUrUrArUrUrGrCdTdG” was tested. Which normalised inhibition (eCFP-eYFP dual reporter) did it give?
A: The normalised inhibition (eCFP-eYFP dual reporter) was 66.2%.

Q: How did the normalised inhibition (eCFP-eYFP dual reporter) turn out when “sense rGrArGrGrArUrGrGrCrUrCrUrCrGrGrArCrArUdTdT / antisense rArUrGrUrCrCrGrArGrArGrCrCrArUrCrCrUrCdCdC” was run?
A: Its normalised inhibition (eCFP-eYFP dual reporter) is 55.9%.

Q: How did the normalised inhibition (eCFP-eYFP dual reporter) turn out when “sense rArGrUrUrGrCrCrArGrArGrGrArCrUrUrGrCrCdTdT / antisense rGrGrCrArArGrUrCrCrUrCrUrGrGrCrArArCrUdCdA” was run?
A: Its normalised inhibition (eCFP-eYFP dual reporter) is 71.7%.

Q: “sense rArArGrArGrGrArArUrGrGrGrArArCrArUrUrGdTdT / antisense rCrArArUrGrUrUrCrCrCrArUrUrCrCrUrCrUrUdGdT” was tested. Which normalised inhibition (eCFP-eYFP dual reporter) did it give?
A: Its normalised inhibition (eCFP-eYFP dual reporter) is 50%.

Q: With “sense rUrArUrGrArGrGrCrGrUrUrUrGrUrCrArUrCrCdTdT / antisense rGrGrArUrGrArCrArArArCrGrCrCrUrCrArUrAdAdT” as the substance, how does the normalised inhibition (eCFP-eYFP dual reporter) read?
A: Its normalised inhibition (eCFP-eYFP dual reporter) is 44.9%.

Q: For “sense rGrArGrGrUrGrGrArUrGrArGrArGrGrCrCrArUdTdT / antisense rArUrGrGrCrCrUrCrUrCrArUrCrCrArCrCrUrCdAdG”, which normalised inhibition (eCFP-eYFP dual reporter) is on record?
A: The normalised inhibition (eCFP-eYFP dual reporter) was 74.4%.

Q: With “sense rCrCrUrCrUrArCrCrArCrArUrGrCrArCrArArUdTdT / antisense rArUrUrGrUrGrCrArUrGrUrGrGrUrArGrArGrGdGdT” as the substance, how does the normalised inhibition (eCFP-eYFP dual reporter) read?
A: The normalised inhibition (eCFP-eYFP dual reporter) was 68.3%.

Q: How did the normalised inhibition (eCFP-eYFP dual reporter) turn out when “sense rCrUrUrCrUrArArArGrCrCrArGrGrGrArUrGrGdTdT / antisense rCrCrArUrCrCrCrUrGrGrCrUrUrUrArGrArArGdCdC” was run?
A: Its normalised inhibition (eCFP-eYFP dual reporter) is 46.4%.

Q: For “sense rArUrUrUrGrArCrUrUrUrCrCrUrGrUrCrArArAdTdT / antisense rUrUrUrGrArCrArGrGrArArArGrUrCrArArArUdAdG”, which normalised inhibition (eCFP-eYFP dual reporter) is on record?
A: The normalised inhibition (eCFP-eYFP dual reporter) was 53.7%.

Q: With “sense rUrGrArArUrGrUrUrCrGrGrArCrArCrCrUrArCdTdT / antisense rGrUrArGrGrUrGrUrCrCrGrArArCrArUrUrCrAdAdC” as the substance, how does the normalised inhibition (eCFP-eYFP dual reporter) read?
A: Its normalised inhibition (eCFP-eYFP dual reporter) is 49%.

Q: With “sense rCrUrGrArUrCrGrUrArCrCrArArGrCrArArGrAdTdT / antisense rUrCrUrUrGrCrUrUrGrGrUrArCrGrArUrCrArGdAdA” as the substance, how does the normalised inhibition (eCFP-eYFP dual reporter) read?
A: The normalised inhibition (eCFP-eYFP dual reporter) was 54.7%.

Q: Which normalised inhibition (eCFP-eYFP dual reporter) does the source give for “sense rUrCrUrUrUrCrArArUrGrCrCrGrUrCrGrArUrUdTdT / antisense rArArUrCrGrArCrGrGrCrArUrUrGrArArArGrAdCdA” here?
A: The normalised inhibition (eCFP-eYFP dual reporter) was 52.7%.

Q: How did the normalised inhibition (eCFP-eYFP dual reporter) turn out when “sense rGrGrArGrCrArArCrUrCrCrArCrCrArGrGrCrAdTdT / antisense rUrGrCrCrUrGrGrUrGrGrArGrUrUrGrCrUrCrCdAdG” was run?
A: The normalised inhibition (eCFP-eYFP dual reporter) was 62.1%.

Q: With “sense rUrUrCrUrGrGrGrGrUrCrUrArUrGrGrGrCrCrAdTdT / antisense rUrGrGrCrCrCrArUrArGrArCrCrCrCrArGrArAdAdA” as the substance, how does the normalised inhibition (eCFP-eYFP dual reporter) read?
A: Its normalised inhibition (eCFP-eYFP dual reporter) is 63.2%.

Q: With “sense rGrGrGrCrArUrGrGrArUrGrArUrGrGrArArGrCdTdT / antisense rGrCrUrUrCrCrArUrCrArUrCrCrArUrGrCrCrCdTdT” as the substance, how does the normalised inhibition (eCFP-eYFP dual reporter) read?
A: Its normalised inhibition (eCFP-eYFP dual reporter) is 54.4%.

Q: “sense rUrGrGrArUrGrArCrCrGrGrUrCrArArArGrCrUdTdT / antisense rArGrCrUrUrUrGrArCrCrGrGrUrCrArUrCrCrAdGdG” was tested. Which normalised inhibition (eCFP-eYFP dual reporter) did it give?
A: The normalised inhibition (eCFP-eYFP dual reporter) was 67.7%.

Q: For “sense rCrUrUrGrArGrArGrCrUrArCrArUrArUrArCrAdTdT / antisense rUrGrUrArUrArUrGrUrArGrCrUrCrUrCrArArGdGdG”, which normalised inhibition (eCFP-eYFP dual reporter) is on record?
A: Its normalised inhibition (eCFP-eYFP dual reporter) is 74.2%.

Q: With “sense rCrUrGrArGrGrArUrCrUrCrCrCrUrGrArUrUrCdTdT / antisense rGrArArUrCrArGrGrGrArGrArUrCrCrUrCrArGdGdG” as the substance, how does the normalised inhibition (eCFP-eYFP dual reporter) read?
A: Its normalised inhibition (eCFP-eYFP dual reporter) is 60.6%.

Q: “sense rGrCrArCrUrUrCrCrArUrArArGrCrCrUrGrArGdTdT / antisense rCrUrCrArGrGrCrUrUrArUrGrGrArArGrUrGrCdTdT” was tested. Which normalised inhibition (eCFP-eYFP dual reporter) did it give?
A: The normalised inhibition (eCFP-eYFP dual reporter) was 78.7%.

Source: the OligoGym collection
